Experimental data reported in ChEMBL document CHEMBL1201862, “PubChem BioAssay data set” (2004).
Calls of active or inactive are those of the source.

Legend:
Streptokinase A = target: T1, Streptokinase A (Streptococcus pyogenes serotype M1, UniProt P10520); assay: S. pyogenes streptokinase expression inhibitors, potency, dose response, plasminogen activation absorbance, OD405 (AID 1914); assay type: functional, Streptococcus pyogenes M1 GAS;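 further: secreted streptokinase activity via plasminogen activation per viability signal from cell pellet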
T1 sequence (P10520 whole entry): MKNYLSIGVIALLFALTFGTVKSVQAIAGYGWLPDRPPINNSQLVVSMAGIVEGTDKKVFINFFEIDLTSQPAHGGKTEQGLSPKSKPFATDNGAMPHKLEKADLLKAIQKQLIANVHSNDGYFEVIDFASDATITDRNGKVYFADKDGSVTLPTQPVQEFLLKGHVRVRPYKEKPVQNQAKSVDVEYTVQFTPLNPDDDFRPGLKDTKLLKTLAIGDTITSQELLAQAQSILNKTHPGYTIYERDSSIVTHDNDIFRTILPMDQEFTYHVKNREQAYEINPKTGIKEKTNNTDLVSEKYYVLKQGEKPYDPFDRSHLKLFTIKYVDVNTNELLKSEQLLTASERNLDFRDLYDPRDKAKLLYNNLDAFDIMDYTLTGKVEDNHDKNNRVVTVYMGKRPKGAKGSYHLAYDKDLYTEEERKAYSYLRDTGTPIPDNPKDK

[1] = target: T2, ATP-dependent translocase ABCB1 (Homo sapiens, UniProt P08183); assay: ABCG2 efflux pump inhibitor potency, dose response, Ig-MXP3 cells, JC-1, flow cytometry, set 2 (AID 504566); assay type: functional; conditions: read-out: EC50_MICROM_;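 further: flow cytometry median green fluorescence of retained JC-1 dye; potency of efflux pump inhibition measured as rising substrate retention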
Vero = assay: host cell cytotoxicity of antiviral hits, dose response, cytotoxicity control for West Nile virus antiviral project, secondary assay (AID 1650); assay type: functional; conditions: Chlorocebus sabaeus
[2] = target: T2, ATP-dependent translocase ABCB1; assay: ABCB1 efflux inhibitor potency, dose response, Jurkat-DNR cells, JC-1, flow cytometry, set 2 (AID 504569); assay type: functional; conditions: read-out: EC50_MICROM_;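 further: potency of pump inhibitors that raise cellular JC-1 green fluorescence up to the nicardipine level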
Streptococcus = assay: Group A Streptococcus viability loss, dose response, counter-screen for streptokinase expression inhibitor project, luminescence, BacTiterGlo (AID 1915); assay type: functional, organism-based;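 further: potency for reduction of bacterial viability or growth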
[3] = test system: Streptococcus sp. 'group A'; assay: growth inhibition of control SK(-) GAS strain, dose response, counter-screen for streptokinase expression inhibitor project, luminescence, kanamycin, BacTiterGlo, confirmation (AID 1900); assay type: functional, organism-based
HEK293 [4] = assay: cells; assay type: functional, cell-based; conditions: Homo sapiens
[5] = target: T3, Nuclear receptor subfamily 0 group B member 1 (Homo sapiens, UniProt P51843); assay: Luminescence-based cell-based high throughput dose response assay for inhibitors of the orphan nuclear receptor subfamily 0, group B, member 1 (DAX1; NR0B1). [Related pubchem assays (depositor defined):AID504766, AID504790]; assay type: functional
T3 sequence (P51843 whole entry): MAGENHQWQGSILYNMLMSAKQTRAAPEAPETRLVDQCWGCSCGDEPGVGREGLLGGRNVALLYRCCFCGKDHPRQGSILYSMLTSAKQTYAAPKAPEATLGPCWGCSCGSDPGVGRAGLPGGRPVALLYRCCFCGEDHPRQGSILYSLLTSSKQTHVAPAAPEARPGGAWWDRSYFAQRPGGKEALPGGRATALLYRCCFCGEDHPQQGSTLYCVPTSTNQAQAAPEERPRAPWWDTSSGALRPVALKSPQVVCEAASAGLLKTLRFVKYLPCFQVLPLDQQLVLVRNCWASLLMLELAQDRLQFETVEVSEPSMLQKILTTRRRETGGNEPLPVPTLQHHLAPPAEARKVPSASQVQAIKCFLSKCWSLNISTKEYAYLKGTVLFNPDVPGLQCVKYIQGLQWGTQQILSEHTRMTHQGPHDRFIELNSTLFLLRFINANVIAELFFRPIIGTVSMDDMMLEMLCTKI

[6] = THP-1 cell cytotoxicity, dose response, cytotoxicity control for non-replicating M. tuberculosis project (AID 489025); assay type: functional
[7] = target: T4, Microphthalmia-associated transcription factor (Homo sapiens, UniProt O75030); assay: TRPM1 promoter luciferase signal decrease, dose response, MITF inhibitor project, cell-based, SK-MEL-5, cherry-picked, set 3 (AID 493073); assay type: functional
T4 sequence (O75030 whole entry): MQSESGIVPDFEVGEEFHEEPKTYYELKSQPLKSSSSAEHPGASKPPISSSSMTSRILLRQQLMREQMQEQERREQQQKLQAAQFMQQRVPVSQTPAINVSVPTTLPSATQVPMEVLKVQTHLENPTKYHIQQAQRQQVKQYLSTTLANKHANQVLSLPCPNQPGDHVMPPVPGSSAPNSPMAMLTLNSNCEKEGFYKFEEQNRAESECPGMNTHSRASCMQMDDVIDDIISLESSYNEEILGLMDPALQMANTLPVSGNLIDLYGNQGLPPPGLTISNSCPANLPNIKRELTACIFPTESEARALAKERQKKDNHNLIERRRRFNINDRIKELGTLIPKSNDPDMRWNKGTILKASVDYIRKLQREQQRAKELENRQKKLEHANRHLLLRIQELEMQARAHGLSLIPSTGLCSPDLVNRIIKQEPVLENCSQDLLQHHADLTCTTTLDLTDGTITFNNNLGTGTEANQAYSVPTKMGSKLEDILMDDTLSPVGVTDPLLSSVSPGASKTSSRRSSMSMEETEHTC

[8] = MC4R antagonists, dose response, counter-screen for LGR2 antagonist project, cell-based, plate reader, cherry pick (AID 743444); assay type: functional;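 further: transfected HEK 293 cells stimulated with alpha-MSH peptide; potency of inhibitors of the alpha-MSH evoked signal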
HEK293 [9] = assay: cells; assay type: functional, cell-based; conditions: Homo sapiens; remark: listed apart in the source
[10] = microbe, parasite or virus in culture; assay type: functional; conditions: Mycobacterium tuberculosis
HEK293 [11] = assay: NOD1 signaling inhibitors, primary screen, cell-based, luminescence, uHTS (AID 1578); assay type: functional; conditions: Homo sapiens
[12] = A549 cell cytotoxicity, dose response, cytotoxicity control, plate reader, cherry-pick, antagonist series (AID 743412); assay type: functional, cell-based
[13] = target: T5, Replicative DNA helicase DnaB (Mycobacterium tuberculosis, UniProt P9WMR3); assay: DnaB intein splicing inhibitors, dose response, biochemical, cell-free fluorescence (AID 449749); assay type: functional
T5 sequence (P9WMR3 whole entry): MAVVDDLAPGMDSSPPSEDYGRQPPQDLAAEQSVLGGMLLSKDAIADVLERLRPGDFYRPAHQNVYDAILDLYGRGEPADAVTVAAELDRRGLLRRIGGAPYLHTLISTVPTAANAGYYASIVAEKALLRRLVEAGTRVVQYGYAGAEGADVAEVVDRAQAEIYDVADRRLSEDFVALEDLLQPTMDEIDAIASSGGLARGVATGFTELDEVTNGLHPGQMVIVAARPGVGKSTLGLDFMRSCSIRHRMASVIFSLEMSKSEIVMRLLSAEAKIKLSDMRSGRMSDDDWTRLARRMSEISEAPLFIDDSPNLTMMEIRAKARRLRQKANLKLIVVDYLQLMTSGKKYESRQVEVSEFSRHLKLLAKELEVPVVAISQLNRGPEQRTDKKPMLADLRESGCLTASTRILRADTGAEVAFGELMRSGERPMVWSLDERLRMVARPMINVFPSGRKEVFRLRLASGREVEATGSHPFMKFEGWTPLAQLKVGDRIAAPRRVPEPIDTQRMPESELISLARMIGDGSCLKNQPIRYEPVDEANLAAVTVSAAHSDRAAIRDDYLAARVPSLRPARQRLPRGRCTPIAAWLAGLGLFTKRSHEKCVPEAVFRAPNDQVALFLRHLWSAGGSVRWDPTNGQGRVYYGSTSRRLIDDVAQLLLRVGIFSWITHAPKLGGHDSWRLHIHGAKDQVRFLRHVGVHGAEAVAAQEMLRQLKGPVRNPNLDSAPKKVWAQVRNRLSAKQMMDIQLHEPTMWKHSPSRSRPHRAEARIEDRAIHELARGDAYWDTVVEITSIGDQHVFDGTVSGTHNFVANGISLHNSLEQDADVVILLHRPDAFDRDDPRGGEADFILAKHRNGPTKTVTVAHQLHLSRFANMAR

HEK293 [14] = assay: NOD2 signaling inhibitors in MDP-stimulated cells, cell-based, uHTS, luminescence (AID 2001); assay type: functional; conditions: Homo sapiens
[15] = HepG2 cell cytotoxicity, dose response, cytotoxicity control, plate reader, cherry-pick, antagonist series (AID 743416); assay type: functional, cell-based
HEK293 [16] = assay: cells; assay type: functional, cell-based; conditions: Homo sapiens; remark: listed apart in the source
[17] = HEK293 cell cytotoxicity, dose response, cytotoxicity control, plate reader, cherry-picked samples (AID 743446); assay type: functional, cell-based
[18] = LGR2 antagonists, dose response, cell-based, HEK293, CRE-luciferase reporter, cherry pick, set 2 (AID 743343); assay type: functional;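 further: transfected cells were stimulated with diluted bursicon conditioned medium after compound addition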
Protein RecA = target: T6, Protein RecA (Mycobacterium tuberculosis, UniProt P9WHJ3); assay: Fluorescence Cell-Free Homogeneous Dose Retest to Identify Inhibitors of RecA-Intein Splicing Activity. [Related pubchem assays (depositor defined):AID2097, AID2223, AID489010, AID492950]; assay type: functional
T6 sequence (P9WHJ3 whole entry): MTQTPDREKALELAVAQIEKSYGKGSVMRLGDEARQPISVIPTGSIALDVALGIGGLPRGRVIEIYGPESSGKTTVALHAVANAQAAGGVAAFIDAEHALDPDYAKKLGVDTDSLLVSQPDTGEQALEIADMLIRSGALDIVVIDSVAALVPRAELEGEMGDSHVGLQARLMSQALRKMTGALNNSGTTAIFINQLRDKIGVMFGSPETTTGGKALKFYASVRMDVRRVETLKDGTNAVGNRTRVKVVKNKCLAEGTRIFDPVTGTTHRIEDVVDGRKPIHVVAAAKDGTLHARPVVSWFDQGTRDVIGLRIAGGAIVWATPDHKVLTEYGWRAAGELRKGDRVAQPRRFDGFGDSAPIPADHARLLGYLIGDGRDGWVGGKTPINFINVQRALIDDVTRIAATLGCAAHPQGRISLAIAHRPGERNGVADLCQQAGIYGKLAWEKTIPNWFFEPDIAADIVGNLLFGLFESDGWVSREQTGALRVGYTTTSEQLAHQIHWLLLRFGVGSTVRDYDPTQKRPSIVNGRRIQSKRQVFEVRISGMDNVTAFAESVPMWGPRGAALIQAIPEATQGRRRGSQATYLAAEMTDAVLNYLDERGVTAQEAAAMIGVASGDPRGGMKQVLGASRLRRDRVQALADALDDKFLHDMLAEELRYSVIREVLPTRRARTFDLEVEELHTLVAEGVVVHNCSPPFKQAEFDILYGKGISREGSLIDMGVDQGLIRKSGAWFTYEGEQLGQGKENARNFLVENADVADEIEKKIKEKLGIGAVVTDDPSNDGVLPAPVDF

cells = assay type: functional
[19] = target: T7, Low molecular weight phosphotyrosine protein phosphatase (Homo sapiens, UniProt P24666); assay type: functional; conditions: read-out: IC50_Mean
T7 sequence (P24666 whole entry): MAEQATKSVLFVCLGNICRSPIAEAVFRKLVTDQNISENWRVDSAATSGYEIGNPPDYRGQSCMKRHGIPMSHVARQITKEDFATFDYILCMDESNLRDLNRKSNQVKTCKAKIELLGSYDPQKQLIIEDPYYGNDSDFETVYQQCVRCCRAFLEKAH

[20] = target: T7, Low molecular weight phosphotyrosine protein phosphatase; assay type: functional; conditions: read-out: IC50_Mean; remark: listed apart in the source

T2 sequence (P08183 whole entry): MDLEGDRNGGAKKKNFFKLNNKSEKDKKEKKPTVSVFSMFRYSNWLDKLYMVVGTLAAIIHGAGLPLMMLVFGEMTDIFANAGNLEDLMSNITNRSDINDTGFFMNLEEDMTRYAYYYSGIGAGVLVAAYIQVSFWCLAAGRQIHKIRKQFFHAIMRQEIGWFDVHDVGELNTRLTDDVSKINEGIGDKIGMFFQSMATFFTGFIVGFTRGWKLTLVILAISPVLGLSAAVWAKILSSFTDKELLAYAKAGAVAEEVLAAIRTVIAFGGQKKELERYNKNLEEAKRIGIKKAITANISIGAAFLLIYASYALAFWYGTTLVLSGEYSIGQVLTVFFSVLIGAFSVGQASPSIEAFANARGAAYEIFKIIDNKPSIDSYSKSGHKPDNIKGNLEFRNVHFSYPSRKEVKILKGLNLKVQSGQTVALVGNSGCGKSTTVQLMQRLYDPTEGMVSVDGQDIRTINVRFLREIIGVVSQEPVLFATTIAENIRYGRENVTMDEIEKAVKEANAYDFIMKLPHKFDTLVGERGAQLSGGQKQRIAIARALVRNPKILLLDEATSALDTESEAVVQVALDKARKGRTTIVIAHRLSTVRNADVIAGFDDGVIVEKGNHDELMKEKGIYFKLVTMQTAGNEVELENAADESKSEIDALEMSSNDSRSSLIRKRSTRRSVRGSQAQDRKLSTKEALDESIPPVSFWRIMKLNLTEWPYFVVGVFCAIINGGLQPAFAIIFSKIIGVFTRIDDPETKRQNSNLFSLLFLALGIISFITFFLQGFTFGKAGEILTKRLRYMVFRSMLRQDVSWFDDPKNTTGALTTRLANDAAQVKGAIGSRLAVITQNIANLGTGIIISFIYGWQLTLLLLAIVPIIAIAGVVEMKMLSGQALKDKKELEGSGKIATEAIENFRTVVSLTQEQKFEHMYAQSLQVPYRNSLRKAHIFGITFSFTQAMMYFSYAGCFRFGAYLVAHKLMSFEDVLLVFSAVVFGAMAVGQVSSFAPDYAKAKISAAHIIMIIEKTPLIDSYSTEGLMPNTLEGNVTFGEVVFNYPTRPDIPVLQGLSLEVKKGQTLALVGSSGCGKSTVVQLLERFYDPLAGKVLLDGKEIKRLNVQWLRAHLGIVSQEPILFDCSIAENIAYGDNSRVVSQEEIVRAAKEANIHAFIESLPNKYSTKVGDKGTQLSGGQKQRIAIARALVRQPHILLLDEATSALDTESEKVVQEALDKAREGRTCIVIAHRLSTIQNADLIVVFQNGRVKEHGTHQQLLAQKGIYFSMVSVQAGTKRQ

Cc1nn2c(N3CCN(C(=O)c4ccco4)CC3)cc(C(C)(C)C)nc2c1-c1ccccc1
active: EC50 (Streptokinase A) 8.62 µM | EC50 [1] 6.22 µM | CC50 (Vero) 42.1 µM | EC50 [2] 11.1 µM | EC50 (Streptococcus) 22.1 µM | EC50 [3] 3.59 µM

CN(Cc1ccc(C(C)(C)C)cc1)C(=O)C1CCN(C(=O)Nc2ccccc2)CC1
inactive: IC50 (HEK293 [4]) > 67.5 µM | IC50 [5] > 67.5 µM

CC(=O)c1ccc(Sc2nnnn2-c2ccccc2)c([N+](=O)[O-])c1
inactive: AC50 [15] > 52 µM | IC50 (HEK293 [16]) > 20 µM
active: CC50 [6] 14.9 µM | AC50 [7] 7.82 µM | AC50 [8] 9.52 µM | IC50 (HEK293 [9]) 2.12 µM | CC50 [10] > 40 µM | EC50 (HEK293 [11]) 14.3 µM | AC50 [12] 49.7 µM | AC50 [13] 5.34 µM | IC50 (HEK293 [14]) 3.13 µM | AC50 [17] 33.2 µM | AC50 [18] 10.8 µM | EC50 (Protein RecA) 14.5 µM | IC50 (cells) 26.2 µM

COc1cccc(C(=O)NC(=O)Nc2cc(C)[nH]n2)c1
inactive: IC50 (HEK293 [4]) > 67.5 µM | IC50 [5] > 67.5 µM

CNc1nc2c(-c3ccc(Cl)cc3)nnn2c2ccccc12
active: IC50 [19] 11.1 µM | IC50 [20] 3.14 µM

Cc1cccnc1NC(=O)C(C)N1C(=O)c2ccccc2C1=O (stereo not drawn)
inactive: IC50 (HEK293 [4]) > 67.5 µM | IC50 [5] > 67.5 µM

Cc1cc(N2CCN(C(=O)c3ccco3)CC2)n2nc(-c3ccc(F)cc3)cc2n1
active: EC50 [1] 2.87 µM | EC50 [2] 10.8 µM

COc1ccc(-c2cc(=O)c3ccccc3o2)cc1 [4'-METHOXYFLAVONE]
inactive: IC50 (HEK293 [4]) > 67.5 µM | IC50 [5] > 67.5 µM
